Data on seven molecules can be found in patent US20240115709A1, “ASSEMBLY OF ORGANIC SUPRAMOLECULAR VESSELS FOR CONTROLLED DRUG RELEASE” (NOBLE PANACEA LABS, INC., priority 2021, published 2024).

The conditions of series [1]: 20° C., reported value; cited from earlier work.
Series [2] is described as follows: Solubility in water and solvents. In kind it is physicochemical.
The conditions of series [3]: cited from earlier work.
A short description of series [4]: Release/diffusion using Franz diffusion cell with artificial membrane. The series is classed as in vitro ADME. The settings on record: control, OA only, within 4 hours.
Series [5] can be described thus: Thermogravimetric analysis (thermal stability). In kind it is physicochemical. Particulars: 250-380° C., argon atmosphere.
Description: The thermal stability of the γ-CD. γ-CDP and γ-CDP has been investigated (FIG. 4) using thermogravimetric analysis which was carried out in argon atmosphere. […] This weight loss may be associated to the decomposition of the ester functional groups attaching the aliphatic chains to the CD.
Thermogravimetric (TGA, Netzsch) was carried out from room temperature to 400° C. at a ramping rate of 5° C. min−1 under an Ar flow.

Values after ≈ are worked out from the molar mass of the structure shown. Read-outs that look alike come from different tables or passages of the source.

One may read the viscosity as the internal friction of a fluid under shear. With `Cc1c(C)c2c(c(C)c1O)CC[C@@](C)(CCC[C@H](C)CCC[C@H](C)CCCC(C)C)O2` [α-tocopherol], the viscosity in series [1] is recorded as 4.6 Pa·s.
On to `CCCCCCCC/C=C\CCCCCCCC(=O)O` [oleic acid], for which, in series [1], the viscosity is 0.0348 Pa·s.
`NC(=O)c1cccnc1` [niacinamide]: in series [2], the “solubility in EtOAc upon addition of the CDOs” value is on record as “increases significantly”. In series [2] (alone), the “solubility in EtOAc” value was “low solubility”.
`O=C1O[C@H]([C@@H](O)CO)C([O-])=C1OP(=O)([O-])[O-].O=C1O[C@H]([C@@H](O)CO)C([O-])=C1OP(=O)([O-])[O-].[Mg+2].[Mg+2].[Mg+2]` [magnesium ascorbyl phosphate (MgAsc), magnesium ascorbyl phosphate]: the solubility in water in series [3] was 8100 µg/mL.
In the case of `CN(C)c1ccc2cc3ccc(N(C)C)cc3nc2c1.Cl` [Orange Acridine hydrochloride (OA), Orange Acridine hydrochloride], the “diffusion through the membrane” value in series [4] came out at 92%. Moreover, the solubility in water in series [3] (23° C.) is 6000 µg/mL.
The molecule `OC[C@H]1O[C@@H]2O[C@H]3[C@H](O)[C@@H](O)[C@@H](O[C@H]4[C@H](O)[C@@H](O)[C@@H](O[C@H]5[C@H](O)[C@@H](O)[C@@H](O[C@H]6[C@H](O)[C@@H](O)[C@@H](O[C@H]7[C@H](O)[C@@H](O)[C@@H](O[C@H]8[C@H](O)[C@@H](O)[C@@H](O[C@H]9[C@H](O)[C@@H](O)[C@@H](O[C@H]1[C@H](O)[C@H]2O)O[C@@H]9CO)O[C@@H]8CO)O[C@@H]7CO)O[C@@H]6CO)O[C@@H]5CO)O[C@@H]4CO)O[C@@H]3CO` [γ-CD, γ-Cyclodextrin] yielded a weight loss in series [5] of 60%.
Regarding `Oc1ccc(C=Cc2cc(O)cc(O)c2)cc1` [resveratrol], the solubility in water in series [3] is 50 µg/mL (≈ 219 µM).
